Results: patent US20100288276A1, “COMPOSITIONS FOR TREATING PARKINSON'S DISEASE” (VECTURAL LIMITED, priority 2007, published 2010)
Counter-ions that a name gives are not always drawn. Like-named read-outs stand apart in the source and are kept apart here.

Legend:
[1] = test system: Parkinson's Disease patients; test: Therapeutic effect (conversion from off to on state) after pulmonary inhalation, clinical trial; assay type: in vivo
[2] = Visual assessment of pMDI suspension formulations; assay type: physicochemical
Method: Nine formulations (see Table 1 and Table 2) were manufactured.
Reduction of the drug concentration (300 μg/50 μl) was investigated in Formulations 4-6 (see FIGS. 5-8).

[3] = nasal administration; cited from earlier work
[4] = Pharmacokinetics after pulmonary inhalation of apomorphine; assay type: in vivo, patients; conditions: for AUC(0-t) / AUC(0-inf) / Cmax / Tmax: human, plasma, inhaled or intranasal; for AUC(0-t): read-out: AUC(0-t), Mean (SD) (converted); for AUC(0-inf): read-out: AUC(0-∞), Mean (SD) (converted); for Cmax: read-out: Cmax, Mean (SD)
[5] = Safety results: treatment emergent adverse events after inhaled apomorphine; assay type: in vivo, patients; conditions: Nominal Doses of 400 μg, 1000 μg and 1600 μg
Method: Safety results: Few patients experienced treatment emergent adverse events (TEAEs) and there were no notable differences in incidence or types of TEAEs among the treatment groups. […] Most common TEAEs at <24 h post dose were nervous system disorders.

[6] = test system: Parkinson's Disease patients; conditions: injected under the skin; cited from earlier work
[7] = Solubility in pMDI propellant formulations; assay type: physicochemical; conditions: within ethanol-based HFA 134a pMDI formulations
Method: Previously a low dose (<25 μg/50 μl) HFA134a/HFA 227 solution formulation has been produced but only at high ethanol contents (50% w/w).

[8] = 1000 μg inhaled, N = 6, 30% apomorphine in 70% lactose blend

Q: Which “mean duration of the therapeutic effect” value ([1]; clinical trial, pulmonary inhalation) does the source give for CN1CCc2cccc3c2[C@H]1Cc1ccc(O)c(O)c1-3 [Apomorphine, apomorphine] here?
A: 75 min

Q: What about the “onset of the therapeutic effect (conversion)” value ([1]; majority of patients, after inhaling apomorphine) of the same molecule?
A: ≤ 10 min

Q: What about the “conversion from the off to the on state” value ([1]; some patients, as quickly as, pulmonary inhalation) of the same molecule?
A: 2 min

Q: What about the “suspension behaviour (visual assessment)” value ([2]; 264 μg/50 μl suspension in HFA 227) of the same molecule?
A: cream (float)

Q: And the “suspension behaviour (visual assessment)” value ([2]; 300 μg/50 μl in pure HFA134a)?
A: rapidly sediment

Q: And the “suspension behaviour (visual assessment)” value ([2]; 600 μg/50 μl in pure HFA134a)?
A: rapidly sedimented

Q: And the density ([2]; density matched at approximately 60% w/w HFA 227 and 40% w/w HFA134a)?
A: about 1.33 g/ml

Q: What about the Tmax [3] of the same molecule?
A: approximately 15 minutes

Q: What about the “k, Mean (SD)” value ([4]; 400 μg inhaled, N = 6, 20% apomorphine in 80% lactose blend) of the same molecule?
A: 0.01 (0.00)

Q: And the “tmax, Mean (SD)” value ([4]; 400 μg inhaled, N = 6, 20% apomorphine in 80% lactose blend, in min)?
A: 1.0 (0.0)

Q: And the “AUC(0-∞), Mean (SD)” value [4, 8]?
A: 216.93 (99.30) ng · min/mL

Q: And the “k, Mean (SD)” value [4, 8]?
A: 0.01 (0.00)

Q: And the “k, Mean (SD)” value ([4]; 1600 μg inhaled, N = 6, 30% apomorphine in 70% lactose blend)?
A: 0.02 (0.00)

Q: What about the AUC(0-t) ([4]; 400 ug) of the same molecule?
A: 0.792 ng·h/mL

Q: What about the AUC(0-inf) ([4]; 400 ug) of the same molecule?
A: 0.945 ng·h/mL

Q: What about the Cmax ([4]; 400 ug) of the same molecule?
A: 3.03 ng/mL

Q: What about the Tmax ([4]; 1000 ug, 1000 μg inhaled, N = 6, 30% apomorphine in 70% lactose blend, read-out: tmax, Mean (SD) (converted)) of the same molecule?
A: 2.6 min

Q: And the AUC(0-t) ([4]; 1000 ug)?
A: 2.81 ng·h/mL

Q: What about the Cmax ([4]; 1000 ug) of the same molecule?
A: 10 ng/mL

Q: What about the Tmax ([4]; 1600 ug, 1600 μg inhaled, N = 6, 30% apomorphine in 70% lactose blend, read-out: tmax, Mean (SD) (converted)) of the same molecule?
A: 2.2 min

Q: What about the AUC(0-t) ([4]; 1600 ug) of the same molecule?
A: 4.51 ng·h/mL

Q: And the AUC(0-inf) ([4]; 1600 ug)?
A: 5.03 ng·h/mL

Q: And the Cmax ([4]; 1600 ug)?
A: 11.9 ng/mL

Q: And the Tmax ([4]; Tmax / time of peak apomorphine plasma concentration, pulmonary inhalation)?
A: 1 to 3 min

Q: What about the “dose proportionality of AUC(0-t), AUC(0-∞) and Cmax” value ([4]; pulmonary inhalation, 400-1600 μg) of the same molecule?
A: Dose proportionality was observed

Q: What about the tolerability [5] of the same molecule?
A: well tolerated

Q: And the “period for which the effect is maintained” value [6]?
A: about 60 minutes

Q: And the “time to bring about an on time” value [6]?
A: 7 to 10 min

Q: Which solubility [7] does the source give for CN1CCc2cccc3c2[C@H]1Cc1ccc(O)c(O)c1-3 [apomorphine hydrochloride] here?
A: low solubility
